Data: patent US20220087987A1, “A METHOD FOR TREATING SWI/SNF COMPLEX-DEFICIENT CANCERS COMPRISING GLUTATHIONE (GSH) METABOLIC PATHWAY INHIBITOR” (National Cancer Center, priority 2018, published 2022)
Where two headings read alike, the source gives them in different places. Square brackets hold non-standard residues; d marks the D form. Peptide text beside a SMILES is read from it. * marks the point of attachment. Sta = CC(C)C[C@H](N)[C@@H](O)CC(=O)O; Isovaleryl = CC(C)CC(=O)*; Cbz = O=C(OCc1ccccc1)*; CH2Cl = ClC*; CH2F = FC*

Experiments:
Format in all cases: cell-based, human
[1] = Drug library screen, cell viability (CellTiter-Glo); parameters: key to Cell viability, WT: % viability relative to DMSO solvent-treated cells; details: human; HCT116 ARID1A-WT; 10 μM for 5 days; relative to cells treated with solvent (DMSO); read-out: Cell viability, WT
Protocol: (§1) ARID1A-WT and ARID1A-KO HCT116 cancer cells were used for screening assays. […] Cell viability was assessed after 5 days using the CellTiter-Glo Luminescent Cell Viability Assay (Promega). Luminescence was measured using an Envision Multi-label plate reader (PerkinElmer). The luminescence reading was used to determine the cell viability relative to that of cells treated with solvent (DMSO). Candidate compounds were considered if viability of ARID1A-KO cells was less than […] was more than 80%.

[2] = test system: ARID1A-KO HCT116 cells; assay: as above; parameters: key to Cell viability, KO: % viability relative to DMSO solvent-treated cells; details: for viability at 10 µM: Homo sapiens, HCT-116, 120 h, read-out: Cell viability, KO
Protocol: as §1

[3] = test system: ARID1A-WT HCT116 cells; assay: as above; parameters: key to Cell viability, WT: % viability relative to DMSO solvent-treated cells
Protocol: as §1

[4] = HCT116 ARID1A-KO, 10 μM for 5 days, relative to cells treated with solvent (DMSO)
[5] = HCT116 ARID1A-WT, 10 μM for 5 days, relative to cells treated with solvent (DMSO)

CN(C)CC[C@H](CSc1ccccc1)Nc1ccc(S(=O)(=O)NC(=O)c2ccc(N3CCN(Cc4ccccc4-c4ccc(Cl)cc4)CC3)cc2)cc1[N+](=O)[O-] [ABT-737]
viability at 5 days, 10 μM [1]: 94.4%
viability at 10 µM [2, 4]: 89.5%

O=S(=O)(c1cccc2cnccc12)N1CCCNCC1 [HA1077]
viability at 5 days, 10 μM [1]: 155%
viability at 10 µM [2, 4]: 73.8%

CCN(CC)CCNC(=O)c1c(C)[nH]c(/C=C2\C(=O)Nc3ccc(F)cc32)c1C [sunitinib malate]
viability at 5 days, 10 μM [1]: 3.23%
viability at 10 µM [2, 4]: 5.95%

CC[C@H](C)C(=O)O[C@H]1C[C@@H](C)C=C2C=C[C@H](C)[C@H](CC[C@@H]3C[C@@H](O)CC(=O)O3)[C@H]21 [Lovastatin]
viability at 5 days, 10 μM [1]: 132%
viability at 10 µM [2, 4]: 85.2%

O=C(Nc1nc2ccccc2n1CCN1CCOCC1)c1cccc([N+](=O)[O-])c1 [IRAK-¼ inhibitor]
Cell viability, WT [3, 5]: 142.234
Cell viability, KO [2, 4]: 160.7174

CC(C)Cn1c(=O)n(C)c(=O)c2[nH]cnc21 [IBMX]
Cell viability, WT [3, 5]: 159.7152
Cell viability, KO [2, 4]: 114.2526

CN(C)S(=O)(=O)c1ccc2c(c1)/C(=C/c1cc3c([nH]1)CCCC3)C(=O)N2 [SU6656]
Cell viability, WT [3]: 124.1846
Cell viability, KO [2]: 170.9958

CC(C)[C@H](CO)Nc1nc(Nc2cccc(Cl)c2)c2ncn(C(C)C)c2n1 [Purvalanol A]
Cell viability, WT [3, 5]: 51.32
Cell viability, KO [2, 4]: 33.47

NCCCC(N)(C(=O)O)C(F)F (stereo not shown) [DFMO]
Cell viability, WT [3, 5]: 98.8
Cell viability, KO [2, 4]: 117.8191

CNC(=N)NCCC[C@H](N)C(=O)O [L-NMMA]
Cell viability, WT [3, 5]: 167.9828
Cell viability, KO [2, 4]: 116.4094

O=C1NC(=O)c2c1c1c3ccccc3n3c1c1c2c2ccccc2n1C1CCC3O1 [SB 218078]
Cell viability, WT [3, 5]: 101.994
Cell viability, KO [2, 4]: 109.2807

CN([C@@H](Cc1ccc(OS(=O)(=O)c2cccc3cnccc23)cc1)C(=O)N1CCN(c2ccccc2)CC1)S(=O)(=O)c1cccc2cnccc12 [KN-62]
Cell viability, WT [3]: 113.3229
Cell viability, KO [2]: 131.0212

Cc1ccc(-c2cn3c4c(sc3n2)CCCC4)cc1 [Pifithrin-a (cyclic)]
Cell viability, WT [3, 5]: 91.15
Cell viability, KO [2, 4]: 99.94

CC(C)(O)/C=C/C(=O)[C@](C)(O)[C@H]1[C@H](O)C[C@@]2(C)[C@@H]3CC=C4[C@@H](C=C(O)C(=O)C4(C)C)[C@]3(C)C(=O)C[C@]12C [Cucurbitacin I]
Cell viability, WT [3, 5]: 13.95
Cell viability, KO [2, 4]: 15.25

Cl.Cl.Cl.Cl.Cl.Cl.Cl.Cl.c1cc(CN2CCCNCCNCCCNCC2)ccc1CN1CCCNCCNCCCNCC1 [AMD3100 octahydrochloride]
Cell viability, WT [3]: 102.6908
Cell viability, KO [2]: 102.0251

NC(=O)c1ccc(-c2nc(-c3ccccn3)c(-c3ccc4c(c3)OCO4)[nH]2)cc1 [SB 431542]
Cell viability, WT [3, 5]: 85.04
Cell viability, KO [2, 4]: 85.02

CC1CNCCN1S(=O)(=O)c1cccc2cnccc12 (stereo not shown) [H-7]
Cell viability, WT [3, 5]: 116.4721
Cell viability, KO [2, 4]: 70.52

CC(C)CC(=O)N[C@H](C(=O)N[C@H](C(=O)N[C@@H](CC(C)C)[C@@H](O)CC(=O)N[C@@H](C)C(=O)N[C@@H](CC(C)C)[C@@H](O)CC(=O)O)C(C)C)C(C)C [Pepstatin A] (Isovaleryl-VV[Sta]A[Sta]-OH)
Cell viability, WT [3, 5]: 115.9467
Cell viability, KO [2, 4]: 126.4531

CN(C)c1nc2c(Br)c(Br)c(Br)c(Br)c2[nH]1 [DMAT]
Cell viability, WT [3, 5]: 113.7397
Cell viability, KO [2, 4]: 116.7866

O=c1[nH]cc(F)c(=O)[nH]1 [5-FU]
Cell viability, WT [3, 5]: 32.167
Cell viability, KO [2, 4]: 24.07

CC(C)(C)n1nc(-c2ccc(Cl)cc2)c2c(N)ncnc21 [PP2]
Cell viability, WT [3, 5]: 121.2434
Cell viability, KO [2, 4]: 149.4142

N#CCCc1ccc2c(c1)-c1[nH]c3ccc([N+](=O)[O-])cc3c1CC(=O)N2 [Alsterpaullone, 2-cyanoethyl]
Cell viability, WT [3, 5]: 6.82
Cell viability, KO [2, 4]: 14.55

CCCCCCCCCCCCCCCCCCc1ccc(C(=O)/C=C/C(=O)O)cc1 [OBAA]
Cell viability, WT [3, 5]: 199.8448
Cell viability, KO [2, 4]: 110.9715

CCOC(=O)C1=C(N)Oc2ccc(Br)cc2C1C(C#N)C(=O)OCC (stereo not shown) [HA 14-1]
Cell viability, WT [3, 5]: 114.2556
Cell viability, KO [2, 4]: 119.1814

CC(C)C[C@H](NC(=O)CNC(=O)OCc1ccccc1)C(=O)N[C@@H](Cc1ccccc1)C(=O)CCl [Z-GLF-CMK] (Cbz-Gly-Leu-Phe-CH2Cl)
Cell viability, WT [3, 5]: 4.255
Cell viability, KO [2, 4]: 4.8907

Nc1[nH]nc2nnc(-c3c(-c4ccccc4)nn4ccccc34)cc12 [ERK inhibitor II]
Cell viability, WT [3, 5]: 103.8555
Cell viability, KO [2, 4]: 160.6702

CCOC(=O)c1c(C)[nH]c(/C=C2\C(=O)Nc3ccccc32)c1C [VEGF recptor 2 kinase inhibitor I]
Cell viability, WT [3, 5]: 106.2493
Cell viability, KO [2, 4]: 109.4563

CCCCCCCCCCCCCCOc1ccc(C(=O)O)o1 [TOFA]
Cell viability, WT [3, 5]: 75.72
Cell viability, KO [2, 4]: 74.56

COC(=O)c1ccc(NCc2cc(O)ccc2O)cc1 [AG957]
Cell viability, WT [3, 5]: 23.69
Cell viability, KO [2, 4]: 17.53

COc1cc2c(cc1OC)-c1[nH]nc(Nc3cccc(F)c3)c1C2
Cell viability, WT [3, 5]: 5.928
Cell viability, KO [2, 4]: 12.89

CCNCCCNCCCCNCCCNCC [N1,N12-Diethylspermine (BESpm), N1,N12-Diethylspermine]
Cell viability, WT [3, 5]: 32.23
Cell viability, KO [2, 4]: 37.8

CCOC(=O)[C@H]1O[C@@H]1C(=O)N[C@@H](CC(C)C)C(=O)NCCC(C)C [E-64d]
Cell viability, WT [3, 5]: 100.8821
Cell viability, KO [2, 4]: 100.5678

CO/C1=C\C(C)=C\[C@@H](C)[C@@H](O)[C@@H](C)C/C(C)=C/C=C/[C@H](OC)[C@@H]([C@@H](C)[C@@H](O)[C@H](C)[C@@]2(O)C[C@@H](O)[C@H](C)[C@@H](C(C)C)O2)OC1=O [Bafilomycin AI]
Cell viability, WT [3, 5]: 4.059
Cell viability, KO [2, 4]: 4.345

MEK inhibitor I
Cell viability, WT [3, 5]: 77.6
Cell viability, KO [2, 4]: 117.4589

Antimycin A1
Cell viability, WT [3, 5]: 4.328
Cell viability, KO [2, 4]: 7.111

Valeryl salicylate
Cell viability, WT [3, 5]: 169.5428
Cell viability, KO [2, 4]: 118.3391

COc1ccc2c(c1)c1c3c(c4c5ccccc5n(C)c4c1n2CC(O)CN(C)C)C(=O)NC3=O (stereo not shown) [Go7874]
Cell viability, WT [3, 5]: 3.01
Cell viability, KO [2, 4]: 4.256

O=C1Nc2ccc3ncsc3c2/C1=C/c1cnc[nH]1 [PKR inhibitor]
Cell viability, WT [3]: 8.714
Cell viability, KO [2]: 16.84

CN1C(=O)CN=C(c2ccc(Cl)cc2)c2cc(Cl)ccc21 [Ro 5-4864]
Cell viability, WT [3, 5]: 92.88
Cell viability, KO [2, 4]: 98.27

COc1cc2ncnc(Nc3cccc(Cl)c3)c2cc1OC [AG1478]
Cell viability, WT [3, 5]: 149.2606
Cell viability, KO [2, 4]: 129.9442

O=Cc1ccc(N2CCOCC2)cc1O [IC60211]
Cell viability, WT [3, 5]: 131.0236
Cell viability, KO [2, 4]: 174.6736

COC(=O)C[C@H](NC(=O)[C@H](C)NC(=O)[C@@H](NC(=O)OCc1ccccc1)C(C)C)C(=O)CF [Z-VAD-FMK] (Cbz-Val-Ala-Asp(OMe)-CH2F)
Cell viability, WT [3, 5]: 177.3841
Cell viability, KO [2, 4]: 128.7264

CN(C)CC(=O)Nc1ccc2[nH]c(=O)c3ccccc3c2c1 [PJ-34]
Cell viability, WT [3]: 18.28
Cell viability, KO [2]: 15.94

O=c1cc(-c2cccc3c2Sc2ccccc2S3)oc(N2CCOCC2)c1 [ATM kinase inhibitor]
Cell viability, WT [3, 5]: 70.42
Cell viability, KO [2, 4]: 83.21

CC(/C=C/C(=O)NO)=C\[C@@H](C)C(=O)c1ccc(N(C)C)cc1 [Trichostatin A]
Cell viability, WT [3, 5]: 6.352
Cell viability, KO [2, 4]: 5

O=CN1CCN(c2ccc(/C=C3\C(=O)Nc4ccccc43)cc2)CC1 [SU4984]
Cell viability, WT [3, 5]: 129.369
Cell viability, KO [2, 4]: 172.2779

O=C1Nc2ccc(I)cc2/C1=C/c1cc(Br)c(O)c(Br)c1 [RAF1 kinase inhibitor I]
Cell viability, WT [3, 5]: 127.271
Cell viability, KO [2, 4]: 164.7652

O=S(=O)(NCCNC/C=C/c1ccc(Br)cc1)c1cccc2cnccc12 [H-89]
Cell viability, WT [3, 5]: 78.81
Cell viability, KO [2, 4]: 119.4541

Tunicamycin
Cell viability, WT [3, 5]: 4.6969
Cell viability, KO [2, 4]: 6.011

OCCn1cc(-c2cnc3nnn(Cc4ccc5ncccc5c4)c3n2)cn1 [PF-04217903]
Cell viability, WT [3, 5]: 86.5829
Cell viability, KO [2, 4]: 93.9615

Cc1cn([C@H]2C[C@H](N=[N+]=[N-])[C@@H](CO)O2)c(=O)[nH]c1=O [AZT]
Cell viability, WT [3, 5]: 71.38
Cell viability, KO [2, 4]: 60.27

a-Amanitin
Cell viability, WT [3, 5]: 8.977
Cell viability, KO [2, 4]: 10.21

NC(=O)C1CCCc2c1[nH]c1ccc(Cl)cc21 (stereo not shown) [SIRT1 inhibitor III]
Cell viability, WT [3, 5]: 92.15
Cell viability, KO [2, 4]: 98.94

O=C(NC(NC(=S)Nc1ccc(F)c([N+](=O)[O-])c1)C(Cl)(Cl)Cl)C(c1ccccc1)c1ccccc1 (stereo not shown) [ATM/ATR kinase inhibitor]
Cell viability, WT [3, 5]: 59.07
Cell viability, KO [2, 4]: 76.77

C[C@H]1CCC/C=C/[C@@H]2C[C@H](O)C[C@H]2[C@H](O)/C=C/C(=O)O1 [brefeldin A]
Cell viability, WT [3, 5]: 1.838
Cell viability, KO [2, 4]: 4.578

COc1cc2ncc(-c3ccccc3)nc2cc1OC [AG1296]
Cell viability, WT [3, 5]: 190.9406
Cell viability, KO [2, 4]: 144.7899
